In PMC6270614 (Molecules, 2013):
Read-outs that look alike come from different tables or passages of the source.

What was measured:
[1] = molecular target: human cannabinoid CB1 receptor (Homo sapiens, UniProt P21554); assay: CB1 receptor radioligand ([3H]CP-55,940) displacement binding assay; details: for inhibition at 1 µM: read-out: displacement of [3H]CP-55,940 in the preliminary screen (printed in the CB1 Ki column)
Description: In all cases, Ki values were calculated by applying the Cheng-Prusoff equation [34] to the IC50 values (obtained by GraphPad, GraphPad Software, Inc., La Jolla, CA, USA) for the displacement of the bound radioligand by increasing concentrations of the test compounds (after three separate experiments for each compound).

[2] = Experimental activity (pIC50, M), CoMFA training and test set input
[3] = CB1 (Ki, nM), displacement of 0.5 nM [3H]CP-55,940, means ± SEM, n = 3, Cheng-Prusoff from IC50
[4] = IC50 (CB1 displacement), displacement of [3H]CP-55,940
[5] = CoMFA training and test set input, read-out: Experimental activity (pIC50) (converted)

Chain of human cannabinoid CB1 receptor (P21554 whole entry): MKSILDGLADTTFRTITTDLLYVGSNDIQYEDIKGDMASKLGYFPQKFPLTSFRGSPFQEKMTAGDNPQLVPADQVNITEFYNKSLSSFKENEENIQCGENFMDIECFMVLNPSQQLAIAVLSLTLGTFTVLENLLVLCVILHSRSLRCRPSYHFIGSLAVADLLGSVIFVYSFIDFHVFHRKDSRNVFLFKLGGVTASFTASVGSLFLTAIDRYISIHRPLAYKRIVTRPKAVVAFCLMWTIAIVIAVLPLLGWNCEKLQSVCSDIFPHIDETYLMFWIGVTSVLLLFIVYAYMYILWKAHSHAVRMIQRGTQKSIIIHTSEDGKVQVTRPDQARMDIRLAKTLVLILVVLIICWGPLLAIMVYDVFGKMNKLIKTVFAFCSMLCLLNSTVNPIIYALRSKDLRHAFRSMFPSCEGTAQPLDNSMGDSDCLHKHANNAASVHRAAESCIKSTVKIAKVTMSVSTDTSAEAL

Row | Compound | inhibition at 1 µM [1] | melting point | IC50 [1, 2] | Ki [1, 3] | further results
1 | O=C(c1cccc2ccccc12)n1c(-c2ccccn2)nc2ccccc21 [Compound 10, Naphthalen-1-yl(2-(pyridin-2-yl)-1H-benzo[d]imidazol-1-yl)methanone] | < 50% |  |  |  | 
2 | O=C(c1cccc2ccccc12)n1c(-c2ccccn2)nc2cc(F)ccc21 [Compound 11, (5-Fluoro-2-(pyridin-2-yl)-1H-benzo[d]imidazol-1-yl)(naphthalen-1-yl)methanone] | < 50% | 167.2 to 167.9 °C |  |  | 
3 | O=C(c1cccc2ccccc12)n1c(-c2ccccn2)nc2ccc(F)cc21 [Compound 12, (6-Fluoro-2-(pyridin-2-yl)-1H-benzo[d]imidazol-1-yl)(naphthalen-1-yl)methanone] | < 50% | 177.2 to 178 °C |  |  | 
4 | Cc1cc2nc(-c3ccccn3)n(C(=O)c3cccc4ccccc34)c2cc1C [Compound 13, (5,6-Dimethyl-2-(pyridin-2-yl)-1H-benzo[d]imidazol-1-yl)(naphthalen-1-yl)methanone] | < 50% | 167.2 to 168 °C |  |  | 
5 | O=C(c1cccc2ccccc12)n1c(-c2cccnc2)nc2ccccc21 [Compound 14, Naphthalen-1-yl-(2-(pyridin-3-yl)-1H-benzo[d]imidazol-1-yl)methanone] |  | 148 to 148.1 °C | 180 nM |  | 
6 | O=C(c1cccc2ccccc12)n1c(-c2cccnc2)nc2cc(F)ccc21 [Compound 15, (5-Fluoro-2-(pyridin-3-yl)-1H-benzo[d]imidazol-1-yl)(naphthalen-1-yl)methanone] |  |  | 979 nM | 534 nM | 
7 | O=C(c1cccc2ccccc12)n1c(-c2cccnc2)nc2ccc(F)cc21 [Compound 16, (6-Fluoro-2-(pyridin-3-yl)-1H-benzo[d]imidazol-1-yl)(naphthalen-1-yl)methanone] | < 50% |  |  |  | 
8 | Cc1cc2nc(-c3cccnc3)n(C(=O)c3cccc4ccccc34)c2cc1C [Compound 17, (5,6-Dimethyl-2-(pyridin-3-yl)-1H-benzo[d]imidazol-1-yl)(naphthalen-1-yl)methanone] | < 50% | 177.2 to 178 °C |  |  | 
9 | O=C(c1cccc2ccccc12)n1c(-c2ccncc2)nc2ccccc21 [Compound 18, Naphthalen-1-yl-(2-(pyridin-4-yl)-1H-benzo[d]imidazol-1-yl)methanone] |  | 155 to 156.1 °C | 69.3 nM | 37.8 ± 5.3 nM | 
10 | O=C(c1cccc2ccccc12)n1c(-c2ccncc2)nc2cc(F)ccc21 [Compound 19, (5-Fluoro-2-(pyridin-4-yl)-1H-benzo[d]imidazol-1-yl)(naphthalen-1-yl)methanone] | < 50% | 180.7 to 181.7 °C |  |  | 
11 | O=C(c1cccc2ccccc12)n1c(-c2ccncc2)nc2ccc(F)cc21 [Compound 20, (6-Fluoro-2-(pyridin-4-yl)-1H-benzo[d]imidazol-1-yl)(naphthalen-1-yl)methanone] | < 50% | 190.4 to 190.9 °C |  |  | 
12 | Cc1cc2nc(-c3ccncc3)n(C(=O)c3cccc4ccccc34)c2cc1C [Compound 21, (5,6-Dimethyl-2-(pyridin-4-yl)-1H-benzo[d]imidazol-1-yl)(naphthalen-1-yl)methanone] |  | 167.2 to 168 °C | 7.24 nM | 3.95 ± 0.8 nM | IC50 [1, 4]: < 10 nM
13 | O=C(c1ccc2ccccc2c1)n1c(-c2ccccn2)nc2ccccc21 [Compound 22, Naphthalen-2-yl(2-(pyridin-2-yl)-1H-benzo[d]imidazol-1-yl)methanone] | < 50% | 145 to 146 °C |  |  | 
14 | O=C(c1ccc2ccccc2c1)n1c(-c2ccccn2)nc2ccc(F)cc21 [Compound 23, (6-Fluoro-2-(pyridin-2-yl)-1H-benzo[d]imidazol-1-yl)(naphthalen-2-yl)methanone] |  |  | 20.9 nM | 11.4 ± 0.9 nM | IC50 [1, 4]: ~20 nM
15 | Cc1cc2nc(-c3ccccn3)n(C(=O)c3ccc4ccccc4c3)c2cc1C [Compound 24, (5,6-Dimethyl-2-(pyridin-2-yl)-1H-benzo[d]imidazol-1-yl)(naphthalen-2-yl)methanone] |  | 168.7 to 169.6 °C | 51.5 nM | 28.1 ± 2.3 nM | 
16 | O=C(c1ccc2ccccc2c1)n1c(-c2cccnc2)nc2ccccc21 [Compound 25, Naphthalen-2-yl(2-(pyridin-3-yl)-1H-benzo[d]imidazol-1-yl)methanone] | < 50% | 148 to 148.6 °C |  |  | 
17 | O=C(c1ccc2ccccc2c1)n1c(-c2cccnc2)nc2cc(F)ccc21 [Compound 26, (5-Fluoro-2-(pyridin-3-yl)-1H-benzo[d]imidazol-1-yl)(naphthalen-2-yl)methanone] |  |  |  |  | IC50 [1, 5]: 10400 nM; Ki ([1]; read-out: CB1 (Ki)): 5700 ± 200 nM

Row | Compound | inhibition at 1 µM [1] | melting point | IC50 [1, 2] | Ki [1, 3] | further results
18 | O=C(c1ccc2ccccc2c1)n1c(-c2cccnc2)nc2ccc(F)cc21 [Compound 27, (6-Fluoro-2-(pyridin-3-yl)-1H-benzo[d]imidazol-1-yl)(naphthalen-2-yl)methanone] |  | 167.2 to 167.7 °C |  |  | IC50 [1, 5]: 1770 nM; Ki ([1]; read-out: CB1 (Ki)): 963 ± 155 nM
19 | Cc1cc2nc(-c3cccnc3)n(C(=O)c3ccc4ccccc4c3)c2cc1C [Compound 28, (5,6-Dimethyl-2-(pyridin-3-yl)-1H-benzo[d]imidazol-1-yl)(naphthalen-2-yl)methanone] |  | 166.7 to 166.9 °C | 1040 nM | 567 ± 27.8 nM | 
20 | O=C(c1ccc2ccccc2c1)n1c(-c2ccncc2)nc2ccccc21 [Compound 29, Naphthalen-2-yl(2-(pyridin-4-yl)-1H-benzo[d]imidazol-1-yl)methanone] |  | 145 to 146.1 °C |  |  | IC50 [1, 5]: 8220 nM; Ki ([1]; read-out: CB1 (Ki)): 4490 ± 133 nM
21 | O=C(c1ccc2ccccc2c1)n1c(-c2ccncc2)nc2cc(F)ccc21 [Compound 30, (5-Fluoro-2-(pyridin-4-yl)-1H-benzo[d]imidazol-1-yl)(naphthalen-2-yl)methanone] |  | 195.7 to 200.6 °C | 1880 nM | 1030 ± 57.9 nM | 
22 | O=C(c1ccc2ccccc2c1)n1c(-c2ccncc2)nc2ccc(F)cc21 [Compound 31, (6-Fluoro-2-(pyridin-4-yl)-1H-benzo[d]imidazol-1-yl)(naphthalen-2-yl)methanone] |  |  | 10.2 nM | 5.55 ± 0.9 nM | IC50 [1, 4]: < 10 nM
23 | Cc1cc2nc(-c3ccncc3)n(C(=O)c3ccc4ccccc4c3)c2cc1C [Compound 32, (5,6-Dimethyl-2-(pyridin-4-yl)-1H-benzo[d]imidazol-1-yl)(naphthalen-2-yl)methanone] | < 50% | 160.4 to 160.9 °C |  |  | 
24 | c1ccc(-c2nc3ccccc3n2Cc2cccc3ccccc23)nc1 [Compound 33, 1-(Naphthalen-1-ylmethyl)-2-(pyridin-2-yl)-1H-benzo[d]imidazole] | < 50% | 150.7 to 151.6 °C |  |  | 
25 | Fc1ccc2c(c1)nc(-c1ccccn1)n2Cc1cccc2ccccc12 [Compound 34, 5-Fluoro-1-(naphthalen-1-ylmethyl)-2-(pyridin-2-yl)-1H-benzo[d]imidazole] | < 50% | 155.7 to 155.9 °C |  |  | 
26 | Fc1ccc2nc(-c3ccccn3)n(Cc3cccc4ccccc34)c2c1 [Compound 35, 6-Fluoro-1-(naphthalen-1-ylmethyl)-2-(pyridin-2-yl)-1H-benzo[d]imidazole] | < 50% | 160.7 to 161.1 °C |  |  | 
27 | Cc1cc2nc(-c3ccccn3)n(Cc3cccc4ccccc34)c2cc1C [Compound 36, 5,6-Dimethyl-1-(naphthalen-1-ylmethyl)-2-(pyridin-2-yl)-1H-benzo[d]imidazole] |  | 155.5 to 156.1 °C | 23.9 nM | 13 ± 1.1 nM | IC50 [1, 4]: ~20 nM
28 | c1cncc(-c2nc3ccccc3n2Cc2cccc3ccccc23)c1 [Compound 37, 1-(Naphthalen-1-ylmethyl)-2-(pyridin-3-yl)-1H-benzo[d]imidazole] |  | 160.2 to 161.1 °C | 139 nM | 75.9 ± 16.6 nM | 
29 | Fc1ccc2c(c1)nc(-c1cccnc1)n2Cc1cccc2ccccc12 [Compound 38, 5-Fluoro-1-(naphthalen-1-ylmethyl)-2-(pyridin-3-yl)-1H-benzo[d]imidazole] |  | 163.4 to 163.9 °C | 180 nM | 98.2 ± 33.5 nM | 
30 | Fc1ccc2nc(-c3cccnc3)n(Cc3cccc4ccccc34)c2c1 [Compound 39, 6-Fluoro-1-(naphthalen-1-ylmethyl)-2-(pyridin-3-yl)-1H-benzo[d]imidazole] |  | 156.1 to 157 °C | 0.979 nM | < 200 nM | IC50 [1, 4]: < 10 nM; Ki ([1]; read-out: CB1 (Ki), displacement of 0.5 nM [3H]CP-55,940, means ± SEM, n = 3, Cheng-Prusoff from IC50): 0.53 ± 0.9 nM
31 | Cc1cc2nc(-c3cccnc3)n(Cc3cccc4ccccc34)c2cc1C [Compound 40, 5,6-Dimethyl-1-(naphthalen-1-ylmethyl)-2-(pyridin-3-yl)-1H-benzo[d]imidazole] | < 50% | 141.4 to 142.1 °C |  |  | 
32 | Cc1cc2nc(-c3ccccn3)n(Cc3ccc4ccccc4c3)c2cc1C [Compound 48, 5,6-Dimethyl-1-(naphthalen-2-ylmethyl)-2-(pyridin-2-yl)-1H-benzo[d]imidazole] |  |  | 86.9 nM | 47.4 ± 11.1 nM | 
33 | Fc1ccc2nc(-c3cccnc3)n(Cc3ccc4ccccc4c3)c2c1 [Compound 51, 6-Fluoro-1-(naphthalen-2-ylmethyl)-2-(pyridin-3-yl)-1H-benzo[d]imidazole] |  |  | 19.6 nM | 10.7 ± 2.8 nM | IC50 [1, 4]: ~20 nM
34 | c1ccc2cc(Cn3c(-c4ccncc4)nc4ccccc43)ccc2c1 [Compound 53, 1-(Naphthalen-2-ylmethyl)-2-(pyridin-4-yl)-1H-benzo[d]imidazole] |  |  |  |  | IC50 [1, 5]: 851 nM; Ki ([1]; read-out: CB1 (Ki)): 464 ± 30.3 nM
